In one assay the test system is rat paw edema. Nature of the assay: Rat Carrageenan Foot Pad Edema Test. The settings on record: oral, 3 h after carrageenan. Format: in vivo, Male Sprague-Dawley rats. As for the experimental part: Rat Carrageenan Foot Pad Edema Test
Male Sprague-Dawley rats were selected in each group so that the average body weight was as close as possible. Rats were fasted with free access to water for over sixteen hours prior to the test. […] One hour later a subplantar injection of 0.1 mL of 1% solution of carrageenan/sterile 0.9% saline was administered and the volume of the injected foot was measured with a displacement plethysmometer connected to a pressure transducer with a digital indicator. Three hours after the injection of the carrageenan, the volume of the foot was again measured.
For orientation: Carrageenan injected into the paw causes an acute inflammation.

The subject of assay [1] is hyperalgesic foot withdrawal (rat). Nature of the assay: Rat Carrageenan-induced Analgesia Test. The settings on record: oral, 3 h after carrageenan. Format: in vivo, Male Sprague-Dawley rats. How it is done:
Rat Carrageenan-induced Analgesia Test
Male Sprague-Dawley rats were treated as previously described for the Carrageenan Foot Pad Edema test. Three hours after the injection of the carrageenan, the rats were placed in a special plexiglass container with a transparent floor having a high intensity lamp as a radiant heat source, positionable under the floor. After an initial twenty minute period, thermal stimulation was begun on either the injected foot or on the contralateral uninjected foot. A photoelectric cell turned off the lamp and timer when light was interrupted by paw withdrawal. The time until the rat withdraws its foot was then measured. The withdrawal latency in seconds was determined for the control and drug-treated groups, and percent inhibition of the hyperalgesic foot withdrawal determined.

The next assay addresses COX-2. The assay can be described thus: Evaluation of COX-2 activity in vitro (PGE2 ELISA, recombinant enzyme). Format: biochemical, human or murine. The settings on record: arachidonic acid 10 μM, pH 8.0, pre-incubation 10-20 minutes. As for the experimental part: The COX-2 inhibition activity of the compounds of this invention illustrated in the Examples was determined by the following methods.
(§1) a. Preparation of recombinant COX baculoviruses
(§2) Recombinant COX-1 and COX-2 were prepared as scribed by Gierse et al, [J. Biochem., 305, 479-84 (1995)]. […] Recombinant baculoviruses were isolated by transfecting 4 μg of baculovirus transfer vector DNA into SF9 insect cells (2×10^8) along with 200 ng of linearized baculovirus plasmid DNA by the calcium phosphate method. See M. D. Summers and G. E. Smith, A Manual of Methods for Baculovirus Vectors and Insect Cell Culture Procedures, Texas Agric. Exp. Station Bull. 1555 (1987). Recombinant viruses were purified by three rounds of plaque purification and high titer (10^7 -10^8 pfu/mL) stocks of virus were prepared. For large scale production, SF9 insect cells were infected in 10 liter fermentors (0.5×10^6 /mL) with the recombinant baculovirus stock such that the multiplicity of infection was 0.1. After 72 hours the cells were centrifuged and the cell pellet homogenized in Tris/Sucrose (50 mM: 25%, pH 8.0) containing 1% 3-[(3-cholamidopropyl)dimethylammonio]-1-propanesulfonate (CHAPS). The nomogenate was centrifuged at 10,000×G for 30 minutes, and the resultant supernatant was stored at -80° C. before being assayed for COX activity.
(§3) COX activity was assayed as PGE2 formed/μg protein/time using an ELISA to detect the prostaglandin released. CHAPS-solubilized insect cell membranes containing the appropriate COX enzyme were incubated in a potassium phosphate buffer (50 mM, pH 8.0) containing epinephrine, phenol, and heme with the addition of arachidonic acid (10 μM). […] Any reaction between the arachidonic acid and the enzyme was stopped after ten minutes at 37° C./room temperature by transferring 40 μl of reaction mix into 160 μl ELISA buffer and 25 μM indomethacin. The PGE2 formed was measured by standard ELISA technology (Cayman Chemical).
In general terms: ELISA stands for enzyme-linked immunosorbent assay.

For the next assay, the target named is COX-1. Nature of the assay: Evaluation of COX-1 activity in vitro (PGE2 ELISA, recombinant enzyme). Format: biochemical, human or murine. The settings on record: arachidonic acid 10 μM, pH 8.0, pre-incubation 10-20 minutes. How it is done: as §1, §2, §3

Consider 17 compounds from patent US5859257A, “Isoxazole compounds as cyclooxygenase inhibitors” (G. D. Searle & Co., priority 1996, dated 1999).

For `CC(C)(O)CCCc1onc(-c2ccccc2)c1-c1ccc(S(N)(=O)=O)cc1` [Example 57, 4-[5-(4-Hydroxy-4-methylpentyl)-3-phenylisoxazol-4-yl]benzenesulfonamide], the “RAT PAW EDEMA % Inhibition” value in the assay on rat paw edema (*@ 30 mg/kg) stood at 23%. In addition, the “ANALGESIA % Inhibition” value in assay [1] (*@ 30 mg/kg) is listed as 5%. Besides, the results for the IC50 at COX-2 and on COX-1 were 0.1 µM and above 100 µM, respectively.

For the compound `CC(C)(O)COCc1onc(-c2ccccc2)c1-c1ccc(S(N)(=O)=O)cc1` [Example 56, 4-[5-(2-Methyl-2-hydroxy-1-n-propyloxymethyl)-3-phenylisoxazol-4-yl]benzenesulfonamide], the “RAT PAW EDEMA % Inhibition” value in the assay on rat paw edema (*@ 30 mg/kg) is reported as 29%. Moreover, in assay [1] (*@ 30 mg/kg), the “ANALGESIA % Inhibition” value is 27%. In addition, the IC50 is 0.2 µM on COX-2 and above 100 µM on COX-1.

In the case of `NS(=O)(=O)c1ccc(-c2c(-c3ccccc3)noc2CCO)cc1` [Example 66, 4-[5-(2-Hydroxyethyl)-3-phenylisoxazol-4-yl]benzenesulfonamide], in the assay with rat paw edema (*@ 30 mg/kg), the “RAT PAW EDEMA % Inhibition” value worked out at 43%. Besides, the “ANALGESIA % Inhibition” value in assay [1] (*@ 30 mg/kg) stood at 49%. For the same compound, the figures for the half-maximal inhibitory concentration (IC50) at COX-2 and at COX-1 were below 0.1 µM and above 100 µM, respectively.

As for `NS(=O)(=O)c1ccc(-c2c(-c3ccccc3)noc2CO)cc1` [Example 10, 4-[5-Hydroxymethyl-3-phenylisoxazol-4-yl]benzenesulfonamide], in the assay with rat paw edema (@ 10 mg/kg body weight), the “RAT PAW EDEMA % Inhibition” value worked out at 57%. Further, the “ANALGESIA % Inhibition” value in assay [1] (@ 10 mg/kg body weight) is 74%. In addition, the half-inhibitory concentration (IC50) at COX-1 was above 100 µM.

Consider `NS(=O)(=O)c1ccc(-c2c(-c3ccccc3)noc2C(F)F)cc1` [Example 1j, 4-[5-difluoromethyl-3-phenylisoxazol-4-yl]benzenesulfonamide], for which the “RAT PAW EDEMA % Inhibition” value with rat paw edema (@ 10 mg/kg body weight) was 37%. In addition, the “ANALGESIA % Inhibition” value in assay [1] (@ 10 mg/kg body weight) is 28%. For the same compound, the IC50 on COX-2 is below 0.1 µM; on COX-1, above 100 µM.

In the case of `CS(=O)(=O)c1ccc(-c2c(-c3ccccc3)noc2C(F)F)cc1` [Example 47, 5-Difluoromethyl-4-(4-methylsulfonylphenyl)-3-phenylisoxazole], the “RAT PAW EDEMA % Inhibition” value in the assay with rat paw edema (@ 10 mg/kg body weight) is reported as 24%. Further, the IC50 on COX-2 is below 0.1 µM; on COX-1, above 100 µM.

Regarding `Cc1onc(-c2ccccc2)c1-c1ccc(S(N)(=O)=O)cc1` [Example 1, 4-[5-Methyl-3-phenylisoxazol-4-yl]benzenesulfonamide], the “RAT PAW EDEMA % Inhibition” value with rat paw edema (@ 10 mg/kg body weight) was 29%. Besides, the “ANALGESIA % Inhibition” value in assay [1] (@ 10 mg/kg body weight) was 33%.

With `CCc1noc(-c2ccccc2)c1-c1ccc(S(N)(=O)=O)cc1` [Example 14, 4-[3-Ethyl-5-phenylisoxazol-4-yl]benzenesulfonamide], the “ANALGESIA % Inhibition” value in assay [1] (*@ 30 mg/kg) is 27%. Also, the half-inhibitory concentration (IC50) on COX-2 is below 0.1 µM; on COX-1, 100 µM.

On to `Cc1onc(-c2ccc(Br)cc2)c1-c1ccc(S(N)(=O)=O)cc1` [Example 43, 4-[3-(4-Bromophenyl)-5-methyl-isoxazol-4-yl]benzenesulfonamide], for which the IC50 at COX-2 was 0.6 µM; on COX-1 it was above 100 µM.

`CSc1ccc(-c2noc(C)c2-c2ccncc2)cc1` [Example 40, [5-Methyl-3-(4-methylthiophenyl)isoxazol-4-yl]-4-pyridine]: the 50% inhibitory concentration (IC50) at COX-2 came out at 91 µM; at COX-1 it was 2.3 µM.

For `CCCc1onc(-c2ccccc2)c1-c1ccc(S(=O)(=O)O)cc1` [Example 1m, 4-[5-propyl-3-phenylisoxazol-4-yl]benzenesulfonic acid], the IC50 on COX-2 was 51 µM; at COX-1, above 100 µM.

Take `CCc1noc(-c2cccc(F)c2)c1-c1ccc(S(N)(=O)=O)cc1` [Example 31, 4-[3-Ethyl-5-(3-fluorophenyl)isoxazol-4-yl]benzenesulfonamide]: the IC50 on COX-2 was 1.3 µM; at COX-1, above 100 µM.

With `Cc1noc(-c2ccccc2)c1-c1ccc(S(C)(=O)=O)cc1` [Example 27, 3-Methyl-4-(4-methylsulfonylphenyl)-5-phenylisoxazole], the IC50 at COX-2 is 46 µM; at COX-1 it was above 100 µM.

For `NS(=O)(=O)c1ccc(-c2c(-c3ccccc3)noc2O)cc1` [Example 12, 4-[5-Hydroxy-3-phenylisoxazol-4-yl]benzenesulfonamide], the values for the half-maximal inhibitory concentration (IC50) on COX-2 and on COX-1 were 2.5 µM and above 100 µM, respectively.

For `Cc1ccc(-c2noc(C)c2-c2ccc(S(N)(=O)=O)cc2)cc1Cl` [Example 4d, 4-[3-(3-chloro-4-methylphenyl)-5-methyl-isoxazol-4-yl]benzenesulfonamide], the IC50 was below 0.1 µM at COX-2 and 44 µM at COX-1.

For `NS(=O)(=O)c1ccc(-c2c(-c3ccccc3)noc2OS(=O)(=O)C(F)(F)F)cc1` [Example 39, 4-[5-Trifluoromethansulfonoxy-3-phenylisoxazol-4-yl]benzenesulfonamide], the half-inhibitory concentration (IC50) on COX-2 was 0.9 µM; on COX-1, above 100 µM.

For the compound `NS(=O)(=O)c1ccc(-c2c(CC(=O)O)noc2-c2ccccc2)cc1` [Example 26, 4-(4-Aminosulfonylphenyl)-5-phenyl-isoxazole-3-acetic acid], the 50% inhibitory concentration (IC50) was 69.5 µM at COX-2 and above 100 µM at COX-1.

By IC50 is commonly meant the concentration needed to halve the response being measured.
